{"source": "patent US11628179B2", "about": "“Compounds for treating and preventing extracellular histone mediated pathologies” (priority 2017, dated 2023)", "key": {"[1]": {"system": "dog plasma proteins", "assay": "Plasma protein binding by ultrafiltration, dog plasma", "type": "in vitro ADME", "settings": "for Concentration of mCBS, 200 ng/mL Post-filter / Concentration of mCBS, 200 ng/mL Pre-filter / Concentration of mCBS, 2000 ng/mL Post-filter / Concentration of mCBS, 2000 ng/mL Pre-filter: replicates and Mean", "description": "(§1) Protein binding was assessed by an ultrafiltration method using Centrifree® Ultrafiltration Devices with a 30000 dalton molecular weight cut-off point. Briefly, known concentrations of mCBS (as free base) were added to human, rat and dog plasma samples and incubated for 20 min at 37° C. The samples were then subject to ultrafiltration to separate protein bound and unbound drug.\n(§2) mCBS stock solutions (10 μL) were spiked into solutions of each test matrix (490 μL) as listed below in Table 9 to have a final concentration of 200 ng/mL & 2000 ng/m L.\n(§3) Spiked samples were then incubated at 37° C. for 20 minutes in a water bath. Aliquots of the samples from each test group (500 μL) were transferred to the ultrafiltration devices (n=3) and centrifuged for 20 minutes at 1000 g. After centrifugation, aliquots of the ultrafiltrates (50 μL) were transferred to separate test tubes for extraction, alongside duplicate aliquots of the samples prior to ultrafiltration from each test group.\n(§4) For quantification of samples before ultrafiltration, samples were analysed against a freshly prepared standard curve in plasma."}, "[2]": {"system": "Sprague Dawley rats", "description": "This study examined acute toxicity from single IV administration of mCBS in rats with doses up to 1000 mg/kg.\nThe acute toxicity of β-O-methyl cellobioside sulfate (mCBS) was assessed in Sprague Dawley rats following intravenous administration of a single bolus dose. A total of five groups of n=3 adult female rats were treated with 10, 30, 100, 300 and 1000 mg/kg doses of mCBS test item in the form of the sodium salt (mCBS.Na) in this dose range finding study. […] The rats were then observed for 7 days prior to termination without necropsy."}, "[3]": {"assay": "Pharmacokinetics, 5 hour intravenous infusion", "type": "in vivo, rat", "description": "The pharmacokinetics (PK) of mCBS were studied following intravenous administration as an infusion over a 5 hours period to male Sprague Dawley rats. In this study the pharmacokinetics of the mCBS compound were investigated following intravenous infusion. The compound was formulated using Hartman's solution and administered to a group of n=3 rats at the rate of 25.3 mg/kg/h (total dose: 126.5 mg/kg; Group 1) and to a second group of n=3 rats at the rate of 50.6 mg/kg/h (total dose: 253 mg/kg; Group 2).\nA total of six blood PK samples were collected from each rat at time points ranging from pre-dose to 5 hours after the start of the infusion. The resulting blood samples were processed to plasma, and subsequently analysed for the concentration of mCBS using an LC-MS/MS based method. Phoenix 64 WinNonlin® software was used to estimate area under the concentration versus time curve (AUC) values over the 0 to 5 h infusion interval. Values for concentration at steady state (Css) and clearance (Cl) were also estimated."}, "[4]": {"assay": "HPLC analysis of mCBS in buffer formulations after 28 days", "type": "physicochemical", "settings": "phosphate or citrate buffer, 25±2° C./60% RH and 40±2° C./75% RH"}, "[5]": {"system": "human RBCs", "assay": "Histone-induced RBC fragility / lysis under shear", "type": "cell-based"}, "[6]": {"system": "human plasma proteins", "assay": "Plasma protein binding by ultrafiltration, human plasma", "type": "in vitro ADME", "settings": "for Concentration of mCBS, 200 ng/mL Post-filter / Concentration of mCBS, 200 ng/mL Pre-filter / Concentration of mCBS, 2000 ng/mL Post-filter / Concentration of mCBS, 2000 ng/mL Pre-filter: replicates and Mean", "description": "as §1, §2, §3, §4"}, "[7]": {"system": "Beagle dogs", "description": "This study was also conducted inter alia to determine the maximum tolerated dose (MTD) of the test item, mCBS, when administered by continuous (24 hours/day) intravenous infusion through a surgically-implanted catheter for 48 hours per dose level for up to 4 dose levels to Beagle dogs.\nmCBS dose formulations were administered to Beagle dogs by continuous (24 hours/day) intravenous infusion for 48 hours per dose level for up to 4 dose levels, as described in the Table 15 below.\nParameters monitored during this phase of the study included mortality, clinical observations, body weights, and food consumption. Serial blood samples were collected from each animal to confirm mCBS plasma levels at the following time points: 24 and 48 hours post start of infusion of each dose level. Blood samples were also collected from each animal for clinical pathology evaluations (hematology, coagulation, and clinical chemistry) on Day 1, prior to administration of the new dose level on Days 3, 5, and 7, and on Day 9."}, "[8]": {"system": "Wistar rats", "assay": "Rat caecal ligation and puncture (CLP), moderate sepsis", "type": "in vivo", "description": "Male Wistar rats (n=8/group) underwent laparotomy, caecal ligation and puncture (CLP) to stimulate faecal peritonitis and subsequent sepsis, then treated with saline (Control CLP) or 50 mg/kg of mCBS at 0, 5 and 10 hr post-op via i.p. injection and monitored for 20 hr. Once rats reached a state of severe morbidity they were humanely euthanased at which point a death was recorded.\nRat caecal ligation and puncture (CLP) assay for sepsis. The CLP assay was performed in male Wistar rats as previously described (see Hubbard, W. J. et al. Cecal ligation and puncture. Shock 24 Suppl 1, 52-57 (2005).). Test compounds (50 mg kg^−1) dissolved in saline or an equivalent volume of saline only (Control cohort) were administered i.p. 5 min pre-CLP and 5, 10 and 15 h post-op until cessation of the experiment at 20 h. Sham-CLP rats underwent the same procedure, however, the caecum was not ligated or punctured and these rats received saline at the same times as above. At the conclusion of the experimental time period (20 h) or when morbidity required ethical euthanasia, the rats were anaesthetised and blood was collected via cardiac puncture into EDTA for subsequent analysis of liver (ALT) and kidney (creatinine) function by the Department of Pathology, The Canberra Hospital. The propensity for clots to form within the blood samples of the saline treated control CLP animals (despite the presence of EDTA) prevented successful analysis of plasma samples from all animals."}}, "note": "Where “and” joins values, the source holds several entries; their conditions need not be identical. Equal entries are not always repeated. Structures can show the parent of a compound that is named as a salt."}
{"smiles": "CO[C@@H]1O[C@H](COS(=O)(=O)O)[C@@H](O[C@@H]2O[C@H](COS(=O)(=O)O)[C@@H](OS(=O)(=O)O)[C@H](OS(=O)(=O)O)[C@H]2OS(=O)(=O)O)[C@H](OS(=O)(=O)O)[C@H]1OS(=O)(=O)O", "note": "[mCBS, β-O-methyl cellobioside sulfate]", "values": [{"measurement": "Plasma protein binding", "setting": "[1]; 200 ng/mL", "value": 19.6, "unit": "%"}, {"measurement": "Plasma protein binding", "setting": "[1]; 2000 ng/mL", "value": 21.0, "unit": "%"}, {"measurement": "Concentration of mCBS, 200 ng/mL Post-filter", "setting": "[1]", "value": "0.194 µg/mL and 0.169 µg/mL and 0.186 µg/mL"}, {"measurement": "Concentration of mCBS, 200 ng/mL Pre-filter", "setting": "[1]", "value": "0.23 µg/mL and 0.225 µg/mL"}, {"measurement": "Concentration of mCBS, 2000 ng/mL Post-filter", "setting": "[1]", "value": "1.97 µg/mL and 1.84 µg/mL and 1.9 µg/mL"}, {"measurement": "Concentration of mCBS, 2000 ng/mL Pre-filter", "setting": "[1]", "value": "2.49 µg/mL and 2.33 µg/mL"}, {"measurement": "Concentration of mCBS, 200 ng/mL Post-filter", "setting": "[1]; mean", "value": 0.183, "unit": "µg/mL"}, {"measurement": "Concentration of mCBS, 200 ng/mL Pre-filter", "setting": "[1]; mean", "value": 0.228, "unit": "µg/mL"}, {"measurement": "Concentration of mCBS, 2000 ng/mL Post-filter", "setting": "[1]; mean", "value": 1.903, "unit": "µg/mL"}, {"measurement": "Concentration of mCBS, 2000 ng/mL Pre-filter", "setting": "[1]; mean", "value": 2.41, "unit": "µg/mL"}, {"measurement": "MTD estimate from potency assessment, free base", "setting": "[2]; IV bolus single and 7-day studies, corrected for potency", "value": "~600", "unit": "mg/kg"}, {"measurement": "Maximum Tolerated Dose (MTD), as free base", "setting": "[2]; single IV bolus, corrected for purity and sodium content", "value": 815, "unit": "mg/kg"}, {"measurement": "Cl, mean (±SEM)", "setting": "[3]; Group 1, 25.3 mg/kg/h", "value": "0.601 (±0.081) l/h/kg"}, {"measurement": "Css, mean (±SEM)", "setting": "[3]; Group 1, 25.3 mg/kg/h", "value": "58,400 (±6,920) ng/ml"}, {"measurement": "AUC 0-5 h infusion interval, mean (±SEM)", "setting": "[3]; Group 1, IV infusion 25.3 mg/kg/h for 5 h", "value": "260,000 (±30,200) ng·h/mL"}, {"measurement": "Cl, mean (±SEM)", "setting": "[3]; Group 2, 50.6 mg/kg/h", "value": "0.571 (±0.025)"}, {"measurement": "Css, mean (±SEM)", "setting": "[3]; Group 2, 50.6 mg/kg/h", "value": "120,000 (±5,560) ng/ml"}, {"measurement": "AUC 0-5 h infusion interval, mean (±SEM)", "setting": "[3]; Group 2, IV infusion 50.6 mg/kg/h for 5 h", "value": "532,000 (±25,500) ng·h/mL"}, {"measurement": "time of infusion to reach steady state plasma level (Css)", "setting": "[3]; IV infusion", "value": 2, "unit": "h"}, {"measurement": "Css and AUC at 50 mg/kg/hr compared to 25 mg/kg/hr", "setting": "[3]; IV infusion 5 h", "value": 2, "unit": "fold"}, {"measurement": "APTT (coagulation test)", "setting": "[3]; rats treated with the higher dose", "value": "higher APTT score compared to the reference range"}, {"measurement": "variation from nominal after 28 days", "setting": "[4]", "value": "~2 % of nominal"}, {"measurement": "inhibition of histone-induced RBC lysis under shear", "setting": "[5]; 0-200 μg/mL prior to 400 μg/mL histones 60 min, 100 mm/s, 40× repetitions", "value": "inhibit histone-induced lysis under shear in a dose-dependent manner"}, {"measurement": "reversal of histone-induced RBC susceptibility to lysis", "setting": "[5]; histones 400 μg/mL 55 min, then mCBS 5 min", "value": "near complete inhibition"}, {"measurement": "Plasma protein binding (%)", "setting": "[6]; 200 ng/mL", "value": 22.3, "unit": "%"}, {"measurement": "Plasma protein binding (%)", "setting": "[6]; 2000 ng/mL", "value": 15.8, "unit": "%"}, {"measurement": "Concentration of mCBS, 200 ng/mL Post-filter", "setting": "[6]", "value": "0.181 µg/mL and 0.15 µg/mL and 0.169 µg/mL"}, {"measurement": "Concentration of mCBS, 200 ng/mL Pre-filter", "setting": "[6]", "value": "0.217 µg/mL and 0.213 µg/mL"}, {"measurement": "Concentration of mCBS, 2000 ng/mL Post-filter", "setting": "[6]", "value": "1.86 µg/mL and 1.75 µg/mL and 1.77 µg/mL"}, {"measurement": "Concentration of mCBS, 2000 ng/mL Pre-filter", "setting": "[6]", "value": "2.19 µg/mL and 2.07 µg/mL"}, {"measurement": "Concentration of mCBS, 200 ng/mL Post-filter", "setting": "[6]; mean", "value": 0.167, "unit": "µg/mL"}, {"measurement": "Concentration of mCBS, 200 ng/mL Pre-filter", "setting": "[6]; mean", "value": 0.215, "unit": "µg/mL"}, {"measurement": "Concentration of mCBS, 2000 ng/mL Post-filter", "setting": "[6]; mean", "value": 1.793, "unit": "µg/mL"}, {"measurement": "Concentration of mCBS, 2000 ng/mL Pre-filter", "setting": "[6]; mean", "value": 2.13, "unit": "µg/mL"}, {"measurement": "steady-state plasma concentration (Css) at the highest dose level", "setting": "[7]; 2788 mg/kg/day", "value": "higher than 300 μg/mL"}, {"measurement": "maximum tolerated dose (MTD)", "setting": "[7]; continuous (24 hours/day) IV infusion for 48 hours, free base corrected dose", "value": 2788, "unit": "mg/kg/day"}, {"measurement": "dose-limiting toxicity (adverse clinical sign)", "setting": "[7]; stepwise administration up to 2788 mg/kg/day", "value": "No dose-limiting toxicity"}, {"measurement": "survival rate", "setting": "[8]; 50 mg/kg i.p. at 0, 5 and 10 hr post-op, monitored 20 hr", "value": 100, "unit": "%"}, {"measurement": "circulating LDH levels", "setting": "[8]; 50 mg/kg i.p., Control CLP 1.1±0.2, p=0.03", "value": "0.6±0.1", "unit": "U/L×10^3"}, {"measurement": "ALT or creatinine levels between the groups", "setting": "[8]; mCBS vs Control CLP", "value": "No differences"}]}
